The test system of data set [1] is D.T.H. response in tumor-bearing (Sarcoma 180) mice immunized with SRBC. The data set can be described thus: D.T.H. footpad test in Sarcoma 180 tumor-bearing mice immunized with SRBC, Example 23. The conditions noted are these: Sarcoma 180-bearing CDF1 mice. Format: in vivo, mouse. Here is the method: This Example describes the tests for evaluation of the immunopotentiating activity of the new compound of this invention. Thus, the effect of the new compound of cell-mediated immunity was tested according to a known technique of Delayed Type Hypersensitivity (D.T.H.) (see P. H. Lagrange et al. "J. Exp. Med." Vol. 139, 1529-1539 (1974)) using tumor-bearing mice which had been immunized with sheep red blood cell (SRBC) as antigen as inoculated into the footpad of the mice.
Thus, a suspension of 10^8 sheep red blood cells in 0.05 ml of physiological saline was subcutaneously injected at the time of immunization into the right hind footpad of each CDF1 -mouse under test (female, 8 weeks-aged, 6 mice in each group) to which 10^6 cells of the tumor cell, Sarcoma 180 had been inoculated intraperitoneally.
On the same day as the day when the immunization with SRBC was effected, as well as on the subsequent, consecutive four days, the mouse under test were then treated by intraperitoneal administration of 0.05 mg/kg, 0.5 mg/kg or 5 mg/kg per day of the test compound as the solution which was prepared by dissolving the test compound in physiological saline and then filtering the solution by a micropore filter (pore diameter: 0.22 micrometers). Two days after the immunization with SRBC, 10^8 SRBC were subcutaneously injected into the left hind footpad of each test mouse for elicitation of the D.T.H. responde. 24 Hours after the elicitating injection, the increased thickness of the left hind footpad was measured with calipers to estimate the degree of swelling in the footpad. The swelling degree is expressed in term of the values calculated by the equation: [formula] The degree of swelling serves to evaluate the degree of cell-mediated immunity involved. For comparison, a suspension of bestatin dispersed in water was tested in the same way as above.

Data set [2] concerns D.T.H. response in mice immunized with sheep red blood cell (SRBC). The data set can be described thus: Delayed Type Hypersensitivity (D.T.H.) footpad test in mice immunized with SRBC, Example 2. The data set is classed as in vivo, mouse. The conditions noted are these: CDF1 mice, control = 100. Here is the method: This Example describes the tests for evaluation of the immunopotentiating activity of the new compound of this invention.
A suspension of 10^8 sheep red blood cells in 0.05 ml of physiological saline was subcutaneously injected at the time of immunization into the right hind footpad of each CDF1 -mouse under test (female, 8 weeks-aged, 5 mice in each group) to establish D.T.H. Simultaneously to the immunization, […] prepared by dissolving the test compound in physiological saline and then filtering the solution by a micropore filter (pore diameter: 0.22 micrometers). Four days later, 10^8 SRBC were subcutaneously injected into the left […] footpad of each test mouse for elicitation of the D.T.H. response. 24 Hours after the elicitating injection, the increased thickness of the left hind footpad was measured with calipers to estimate the degree of swelling in the footpad. The swelling degree is expressed in term of the values calculated by the equation: [formula] The degree of swelling serves to evaluate the degree of cell-mediated immunity involved. For comparison, a suspension of bestatin dispersed in water was tested in the same way as above.

The test system of a further data set is ICR-strain mice. Put plainly: acute toxicity, intraperitoneal, ICR-strain mice. Format: in vivo, mouse. The conditions noted are these: dosage of 100 mg/kg. The source says: In order to estimate the acute toxicity of the compound of the formula (VIII) or (IIId), some of the test compound was intraperitoneally given to ICR-strain mice (in groups each consisting of 6 mice, male, 5 weeks-aged, average body weight 20 g.), when all the tested mice tolerated intraperitoneal administration of (2S,3R)-APHA; (2S)-2-N-[(2'S,3'R)-3'-amino-2'-hydroxy-4'-phenyl-butanoyl]amino-4-methyl- pentanol; (2S)-2-N-[(2'S,3'R)-3'-amino-2'-hydroxy-4'-phenylbutanoyl-(S)-leucyl]amino-4-methyl-pentanol; (2S,3R)-3-amino-2-hydroxy-4-phenylbutanoyl-(S)-leucyl-(S)-leucine; (2S,3R)-3-amino-2-hydroxy-4-phenyl-butanoyl-(S)-leucyl-(S)-arginine; (2S,3R)-3-amino-2-hydroxy-4-phenylbutanoyl-(S)-leucyl-(S)-asparagine; (2R,3R)-3-amino-2-hydroxy-4-phenylbutanoyl-(S)-leucyl-(R)-asparagine; and (2S,3R)-3-amino-2-hydroxy-4-phenylbutanoyl-(S)-leucyl-(R)-arginine at a dosage of 100 mg/kg.

The next data set concerns the target T1, aminopeptidase B (Rattus norvegicus, UniProt O09175).
T1 sequence (O09175 1-650): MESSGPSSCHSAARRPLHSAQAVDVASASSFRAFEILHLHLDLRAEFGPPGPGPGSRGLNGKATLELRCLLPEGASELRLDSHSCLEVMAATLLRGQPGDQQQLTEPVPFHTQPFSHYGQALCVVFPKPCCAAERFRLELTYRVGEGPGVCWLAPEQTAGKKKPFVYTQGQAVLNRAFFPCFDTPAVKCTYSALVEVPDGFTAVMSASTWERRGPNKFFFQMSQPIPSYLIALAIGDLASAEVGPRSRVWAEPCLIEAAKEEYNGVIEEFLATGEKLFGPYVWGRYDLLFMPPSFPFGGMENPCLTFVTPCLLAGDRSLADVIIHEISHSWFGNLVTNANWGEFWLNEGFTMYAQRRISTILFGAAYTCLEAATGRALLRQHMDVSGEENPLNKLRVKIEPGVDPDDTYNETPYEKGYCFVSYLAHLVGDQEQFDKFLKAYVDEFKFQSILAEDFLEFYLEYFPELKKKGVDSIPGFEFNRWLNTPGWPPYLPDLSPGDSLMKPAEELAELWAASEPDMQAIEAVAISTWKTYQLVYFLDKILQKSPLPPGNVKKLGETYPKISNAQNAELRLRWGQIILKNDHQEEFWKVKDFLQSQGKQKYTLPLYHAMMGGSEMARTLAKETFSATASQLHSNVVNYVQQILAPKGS
The data set can be described thus: aminopeptidase B-inhibiting activity (modified Hopsu method, arginine β-naphthylamide substrate). The data set is classed as biochemical. The conditions noted are these: 37° C., pH 7.0, 30 minutes. As to the method: The aminopeptidase B-inhibiting activity was determined according to a modification of the method of V. K. Hopsu et al. described in the "Archives of Biochemistry and Biophysics" Vol. 114, 557 (1966). Thus, a mixture of 0.8 ml of 0.1 mM of (S)-arginine β-naphthylamide and 1.0 ml of 0.1M Tris-hydrochloride buffer (pH 7.0) was admixed with 0.7 ml of 0.1M Tris-hydrochloride buffer (pH 7.0) containing the test compound and then heated at 37° C. for 3 minutes. […] After the reaction at 37° C. for 30 minutes, the reaction solution was admixed with 0.6 ml of 0.1M acetate buffer (pH 4.2) containing 1.0 mg/ml of diazonium salt of o-aminoazotoluene (Garnet GBC) and 1.0% of a surfactant "Tween" 20 (a registered trademark) to stop the enzymatic reaction and then allowed to stand at ambient temperature for 15 minutes. After this, absorbance (a) at 525 nm of the reaction solution was measured by spectrophotometer. For the control, the above procedure was repeated without the test compound and the adsorbence (b) was measured. Percentages for inhibition to aminopeptidase B were calculated according to the equation: [formula] Inhibition percentages at various concentrations of the test compound were measured, and from the values of inhibition percentages measured 50% Inhibition Concentration (IC50) was evaluated.

The test system of data set [3] is D.T.H. response in mice immunized with SRBC as antigen. The data set can be described thus: D.T.H. footpad test in mice immunized with SRBC, Examples 3-6 (dosages per mouse). The data set is classed as in vivo. The conditions noted are these: for Degree of swelling: control = 100. As to the method: The effect of (2S,3R)-AHPA on cell-mediated immunity was tested in the same way in Example 2, namely according to the D.T.H. technique using mice immunized with sheep red blood cell as antigen. Thus, a suspension of 10^8 sheep red blood cells in 0.05 ml of physiological saline were subcutaneously injected at the time of immunization into the right hind footpad of each CDF1 -mouse under test (female, 8 weeks-aged, 5 mice in each group) to establish D.T.H. […] The degree of swelling was evaluated. By way of comparison, bestatin was tested in the same way as above. […] The effect of (2S,3R)-AHPA on the D.T.H. response was estimated in the same manner as in the above procedure (A) of Example 3 by orally administering 1 mcg/mouse, 0.1 mcg/mouse or 0.01 mcg/mouse of (2S,3R)-AHPA to each mouse under test. […] The effect of the mode of administering (2S,3R)-AHPA on the D.T.H. response was estimated in the same manner as in the procedure (A) of Example 3, except that the test compound (as aqueous solution) was injected intraperitoneally in stead of being given orally.

Structures are written as SMILES. ≈ marks a conversion by molar mass, not a printed value.

In general, IC50 refers to the point on the concentration scale where inhibition reaches its midpoint. High values mean weaker potency, low ones greater potency. As for `CC(C)C[C@H](NC(=O)[C@@H](O)[C@H](N)Cc1ccccc1)C(=O)N[C@H](CCCNC(=N)N)C(=O)O` [Compound No. 10], the values for the Degree of swelling in data set [1] (intraperitoneal 0.5 mg/kg/day) and in data set [2] (oral 0.5 mg/kg at immunization) were 155% and 134%, respectively. Also, the “acute toxicity: tolerance of intraperitoneal administration” value with ICR-strain mice is “tolerated”. At aminopeptidase B, this compound gave an IC50 of 0.39 µg/mL (≈ 0.839 µM).
With `CC(C)C[C@H](NC(=O)[C@@H](O)[C@H](N)Cc1ccccc1)C(=O)O` [Bestatin, (2S, 3R)-3-amino-2-hydroxy-4-phenylbutanoyl-(S)-leucine], the “Increase in thickness of footpad (± S.D.)” value in data set [3] (Table 3, oral 0.1 mcg/mouse) turned out to be 9.3 ± 2.70 × 0.1 mm; in data set [3] (Table 3, oral 1 mcg/mouse), 10.3 ± 0.96 × 0.1 mm; in data set [3] (Table 3, oral 10 mcg/mouse), 12.0 ± 1.25 × 0.1 mm; in data set [3] (Table 4, oral 1 mcg/mouse) it was 10.8 ± 1.08 × 0.1 mm; in data set [3] (Table 7, oral 1 mcg/mouse) it was 11.6 ± 0.91 × 0.1 mm. Besides, the Degree of swelling in data set [3] (Table 3, oral 0.1 mcg/mouse) is recorded as 118%; in data set [3] (Table 3, oral 1 mcg/mouse), 130%; in data set [3] (Table 3, oral 10 mcg/mouse), 152%; in data set [3] (Table 4, oral 1 mcg/mouse) it was 133%; in data set [3] (Table 7, oral 1 mcg/mouse) it was 133%; in data set [3] (Table 8, oral 1 mcg/mouse), 121%. Besides, the Degree of swelling is on record as 130% in data set [1] (intraperitoneal 5 mg/kg/day), 120-130% in data set [2] (oral 0.05 mg/kg at immunization) and 140-150% in data set [2] (oral 0.5 mg/kg at immunization). In addition, the “Degree of swelling, Intraperitoneal injection” value in data set [3] (Table 5, intraperitoneal 1 mcg/mouse) worked out at 128%. The “Degree of swelling, Oral administration” value in data set [3] (Table 5, oral 1 mcg/mouse) is on record as 133%. For the same compound, the “Increase in thickness of footpad (+ S.D.)” value in data set [3] (Table 8, oral 1 mcg/mouse) was 10.3 ± 1.36 × 0.1 mm. In addition, the solubility in water result in “solubility in water” was “sparingly soluble in water”. The compound further came in with an IC50 against aminopeptidase B of 0.03 µg/mL (≈ 0.0973 µM).
For the compound `CC(C)C[C@H](NC(=O)[C@@H](O)[C@H](N)Cc1ccccc1)C(=O)N[C@@H](CC(N)=O)C(=O)O` [Compound No. 11, (2S,3R)-3-amino-2-hydroxy-4-phenylbutanoyl-(S)-leucyl-(S)-asparagine], the figures for the Degree of swelling in data set [1] (intraperitoneal 0.05 mg/kg/day) and in data set [2] (oral 0.5 mg/kg at immunization) were 155% and 128%, respectively. The compound further yielded an IC50 against aminopeptidase B of 22.4 µg/mL (≈ 53 µM).
Turning to `CC(C)C[C@H](NC(=O)[C@@H](O)[C@H](N)Cc1ccccc1)C(=O)N[C@@H](CCCNC(=N)N)C(=O)O` [Compound No. 5, (2S,3R)-3-amino-2-hydroxy-4-phenyl-butanoyl-(S)-leucyl-(S)-arginine], the Degree of swelling in data set [1] (intraperitoneal 5 mg/kg/day) is given as 147%; in data set [2] (oral 0.5 mg/kg at immunization) it was 135%. Besides, the solubility in water result in “solubility in water” is on record as “soluble in water”. Moreover, the IC50 against aminopeptidase B came to 0.11 µg/mL (≈ 0.237 µM).
With `CC(C)C[C@H](NC(=O)[C@@H](O)[C@H](N)Cc1ccccc1)C(=O)N[C@H](CC(N)=O)C(=O)O` [Compound No. 12, (2S,3R)-3-amino-2-hydroxy-4-phenylbutanoyl-(S)-leucyl-(R)-asparagine], the Degree of swelling is 157% in data set [1] (intraperitoneal 0.5 mg/kg/day) and 133% in data set [2] (oral 0.5 mg/kg at immunization). For the same compound, the “acute toxicity: tolerance of intraperitoneal administration” value in the data set on ICR-strain mice is “tolerated”. Further, the IC50 against aminopeptidase B stood at 4.7 µg/mL (≈ 11.1 µM).
Consider `CC(C)C[C@H](NC(=O)[C@H](CC(C)C)NC(=O)[C@@H](O)[C@H](N)Cc1ccccc1)C(=O)O` [Compound No. 6, (2S,3R)-3-amino-2-hydroxy-4-phenylbutanoyl-(S)-leucyl-(S)-leucine], for which the values for the Degree of swelling in data set [1] (intraperitoneal 0.5 mg/kg/day) and in data set [2] (oral 0.5 mg/kg at immunization) were 152% and 120%, respectively. Also, the IC50 against aminopeptidase B was 0.20 µg/mL (≈ 0.474 µM).

For the origin of these results see US4473554A, “Bestatin-related compounds as immunopotentiator” (Zaidan Hojin Biseibutsu Kagaku Kenkyu Kai, priority 1982, dated 1984).
